{"source": "patent US11013719B2", "about": "“Sunitinib formulations and methods for use thereof in treatment of glaucoma” (The Johns Hopkins University, priority 2014, dated 2021)", "key": {"immunopanned RGCs": {"system": "immunopanned RGCs", "assay": "Survival of immunopanned primary RGCs in culture", "assay_type": "cell-based, mice", "conditions": "for Neuroprotective (survival-promoting) activity on primary RGCs in culture: increasing doses, 72 hours in culture; for Toxicity in primary RGC culture: nanomolar doses", "procedure": "All animal use was in accordance with ARVO Statement for the Use of Animals, and all the experimental procedures were performed in compliance with animal protocols approved by the IACUC at Johns Hopkins University. Retinas were isolated from postnatal 0-5 day mice and dissociated with papain. Microglia was immunodepleted with anti-CD11b conjugated Dynabeads. The suspension of retinal cells were immunopanned on plates pre-conjugated with anti-Thy1.2 antibody (Serotec, MCA028) and anti-mouse IgM at room temperature (RT). After washing, RGCs were released from the plate by a cell lifter, counted, and seeded at a density of 10,000 per well in 96-well plates in the media composed of Neurobasal, B27, N2 supplement, L-glutamine, and penicillin/streptomycin. […] Images were taken from portions of each well with Cellomics Kinetscan, and cell survival was quantified and calculated with the algorithms in Cellomics Neuroprofiling package. As indicated, RGC viability was alternatively measured by CellTiter-Glo luminescence (Promega).\nFor siRNA-based screening, the siRNAs from the Sigma Mission Mouse Kinome library were complexed with NeuroMag (Oz Biosciences) at a final concentration of 20 nM. […] Confirmatory siRNAs were obtained from both Dharmacon and Ambion. […] RGCs were cultured for 48 h, and cell viability was analyzed on a plate reader (ViewLux, Perkin Elmer) using the bioluminescent CellTiterGlo (Promega) assay. Concentration response curves were created using CurveFit (NIH NCATS)."}, "optic nerve axons": {"system": "optic nerve axons", "assay": "Rat laser-induced ocular hypertension (glaucoma model)", "assay_type": "in vivo, Wistar rats", "conditions": "for Neuroprotection in the glaucoma model: intravitreal PLGA microspheres / slow release formulation", "procedure": "(§1) 6-week old male Wistar rats were anesthetized with ketamine/xylazine. A partial periotomy was made to expose the sclera. The injection site was approximately 1 mm posterior to the ora serrata, and the injection glass pipet was angled towards the optic disc in order to avoid lens injury. 5 μL (10 μg) of PLGA microspheres were injected with a glass pipet and Hamilton syringe.\nIntraocular pressure (IOP) was unilaterally elevated by laser treatment of the trabecular meshwork as previously described^7. Briefly, 6-week old Wistar male rats were anesthetized with ketamine/xylazine. On two consecutive weeks, 40-50 532 nm diode laser spots were applied to the prelimbal region (50 μm diameter, 600 mW power and 0.6 seconds duration). Under anesthesia, the IOP of laser-treated and fellow eyes was measured with TonoLab one and three days after laser treatment. Four weeks following laser treatment, rats were perfused with 4% paraformaldehyde in phosphate buffer. Optic nerves were isolated, postfixed with 1% osmium tetroxide, embedded in epoxy resin and stained with 1% toluidine blue. Images from 10 random and nonoverlapping fields were taken with 100× oil phase contrast objective. The area of entire optic nerve cross-sections were imaged with 10× magnification, and used with axon counts from the 10 field to derive axon counts per nerve. The laser treatment and acquisition of optic nerve images were performed in a masked fashion."}, "RGCs [1]": {"system": "RGCs", "assay": "Rat optic nerve transection after intravitreal microspheres", "assay_type": "in vivo, Wistar rats", "procedure": "as §1\nThe optic nerve was exposed by a partial peritomy and intraorbital dissection of the extraocular muscles, and then transected with a 25-gauge needle. 4-Di-10-ASP were then applied to the proximal nerve stump. Care was taken to avoid vascular injury during the transection, and retinal perfusion was examined after nerve transection. Two weeks after transection, rats were sacrificed and enucleated. Retinas were flatmounted, imaged with confocal microscopy and the number of 4-Di-10-ASP-labeled cells with RGC morphology was quantified. Imaging and quantification of RGC survival were performed in a masked fashion."}, "DLK": {"system": "DLK", "assay": "DLK signaling in immunopanned RGCs (Western blot of phospho-MKK7 and phospho-JNK)", "assay_type": "cell-based, mice", "conditions": "same concentrations that increase RGC survival", "procedure": "Western blots were performed according to the standard protocol. The following antibodies were from Cell Signaling Technology: Phospho-JNK, Thr183/Tyr185 (4671); JNK (9258); Phospho-MKK7 (4171), and MKK7 (4172). Monoclonal anti-alpha-tubulin antibody (T6074) was purchased from Sigma. DLK rabbit polyclonal was provided by S. Hirai.\nTo assess sunitinib's effect on DLK signaling in RGCs, immunopanned cells were cultured in the presence of increasing amounts of sunitinib."}, "[2]": {"assay": "Solubility of sunitinib in aqueous solution", "assay_type": "physicochemical"}, "kinases": {"system": "kinases", "conditions": "at neuroprotective concentrations; cited from earlier work"}, "RGCs [3]": {"system": "RGCs", "assay": "Whole-cell patch-clamp recordings from RGCs at two weeks in culture", "source_text": "Recordings were made by using the whole-cell patch-clamp technique in both current- and voltage-clamp modes with an Axopatch 200B. Data were low-pass filtered at 1 kHz (Bessel) and sampled at 10 kHz. […] The recording pipette was filled with the following intracellular solution (in mM): 100 K-gluconate, 50 KCl, 20 HEPES, 10 EGTA, 5 MgCl2, 2 ATP, 0.1 GTP, pH adjusted to 7.33 with KOH. The cells were continuously perfused with (in mM): 140 NaCl, 5 KCl, 1 MgCl2, 2.5 CaCl2), 10 glucose, 10 HEPES, pH 7.4 with NaOH.\nTo determine whether the RGCs that are kept alive for extended periods with DLK siRNA or sunitinib treatment remain functional, patch-clamp recordings were performed at two weeks in culture."}}}
{"compound": "O=C(c1ccc(/C=C/c2n[nH]c3ccccc23)cc1)N1CCNCC1", "note": "[KW-2449]", "values": [{"measurement": "Neuroprotective (survival-promoting) activity on primary RGCs in culture", "setting": "immunopanned RGCs", "value": "promoted the survival of primary RGCs in culture"}]}
{"compound": "CCN(CC)CCNC(=O)c1c(C)[nH]c(/C=C2\\C(=O)Nc3ccc(C(=O)N(C)C)cc32)c1C", "note": "[SR8165]", "values": [{"measurement": "DLK toxicity", "setting": "immunopanned RGCs", "value": "reduced DLK toxicity"}, {"measurement": "Neuroprotective (survival-promoting) activity on primary RGCs in culture", "setting": "immunopanned RGCs", "value": "greater efficacy in vitro"}, {"measurement": "Neuroprotection in the glaucoma model", "setting": "optic nerve axons", "value": "conferred similar neuroprotection"}]}
{"compound": "CN(C)S(=O)(=O)c1ccc2c(c1)/C(=C/c1cc3c([nH]1)CCCC3)C(=O)N2", "note": "[SU6656]", "values": [{"measurement": "Neuroprotective (survival-promoting) activity on primary RGCs in culture", "setting": "immunopanned RGCs", "value": "neuroprotective"}]}
{"compound": "CCN(CC)CCNC(=O)c1c(C)[nH]c(/C=C2\\C(=O)Nc3ccc(F)cc32)c1C", "note": "[Sunitinib]", "values": [{"measurement": "Neuroprotective (survival-promoting) activity on primary RGCs in culture", "setting": "immunopanned RGCs", "value": "dose-dependent increase in the viability of primary RGCs"}, {"measurement": "Increase in surviving RGCs compared to control animals", "setting": "RGCs [1]; intravitreal PLGA microspheres 7 days before transection, two weeks post-transection", "value": "3-4 fold"}, {"measurement": "Reduction of optic nerve axon loss", "setting": "optic nerve axons; intravitreal drug-eluting microspheres, one month, p<0.05", "value": 40, "unit": "%"}, {"measurement": "Phosphorylation of targets downstream of DLK, including MKK7 and JNK", "setting": "DLK", "value": "decrease in the phosphorylation"}, {"measurement": "Solubility in aqueous solution", "setting": "[2]", "value": "pH dependent"}, {"measurement": "Number of kinases inhibited", "setting": "kinases", "value": "~200", "unit": "kinases"}, {"measurement": "Functionality of RGCs kept alive for extended periods", "setting": "RGCs [3]", "value": "conducted action potentials in response to depolarizing current and were responsive to exogenously applied glutamate"}]}
{"compound": "COc1cc(N2CCC(N3CCN(C)CC3)CC2)ccc1Nc1ncc(Cl)c(Nc2ccccc2S(=O)(=O)C(C)C)n1", "note": "[TAE-684]", "values": [{"measurement": "Toxicity in primary RGC culture", "setting": "immunopanned RGCs", "value": "limited by toxicity at nanomolar doses"}]}
{"compound": "Cc1cc(Nc2cc(N3CCN(C)CC3)nc(Sc3ccc(NC(=O)C4CC4)cc3)n2)[nH]n1", "note": "[Tozasertib, tozasertib]", "values": [{"measurement": "Neuroprotective (survival-promoting) activity on primary RGCs in culture", "setting": "immunopanned RGCs", "value": "promoted the survival of primary RGCs in culture"}, {"measurement": "Protection of RGCs in the optic nerve transection model", "setting": "RGCs [1]; intravitreal slow release formulation", "value": "protected RGCs"}, {"measurement": "Neuroprotection in the glaucoma model", "setting": "optic nerve axons", "value": "protected RGCs"}]}
{"compound": "C[C@@H](Oc1cc(-c2cnn(C3CCNCC3)c2)cnc1N)c1c(Cl)ccc(F)c1Cl", "note": "[crizotinib]", "values": [{"measurement": "Neuroprotective (survival-promoting) activity on primary RGCs in culture", "setting": "immunopanned RGCs", "value": "promoted the survival of primary RGCs in culture"}]}
{"compound": "COc1cc2c(Oc3ccc(NC(=O)C4(C(=O)Nc5ccc(F)cc5)CC4)cc3F)ccnc2cc1OCCCN1CCOCC1", "note": "[foretinib]", "values": [{"measurement": "Neuroprotective (survival-promoting) activity on primary RGCs in culture", "setting": "immunopanned RGCs", "value": "promoted the survival of primary RGCs in culture"}]}
{"compound": "Cc1ccc(NC(=O)c2ccc(CN3CCN(C)CC3)cc2)cc1Nc1nccc(-c2cccnc2)n1", "note": "[imatinib]", "values": [{"measurement": "Neuroprotective (survival-promoting) activity on primary RGCs in culture", "setting": "immunopanned RGCs", "value": "lack neuroprotective activity"}]}
{"compound": "CCOc1cc2ncc(C#N)c(Nc3ccc(OCc4ccccn4)c(Cl)c3)c2cc1NC(=O)/C=C/CN(C)C", "note": "[neratinib]", "values": [{"measurement": "Toxicity in primary RGC culture", "setting": "immunopanned RGCs", "value": "limited by toxicity at nanomolar doses"}]}
{"compound": "CNC(=O)c1cc(Oc2ccc(NC(=O)Nc3ccc(Cl)c(C(F)(F)F)c3)cc2)ccn1", "note": "[sorafenib]", "values": [{"measurement": "Neuroprotective (survival-promoting) activity on primary RGCs in culture", "setting": "immunopanned RGCs", "value": "lack neuroprotective activity"}]}
{"compound": "Clc1ccc(Nc2nnc(Cc3ccncc3)c3ccccc23)cc1", "note": "[vatalanib]", "values": [{"measurement": "Neuroprotective (survival-promoting) activity on primary RGCs in culture", "setting": "immunopanned RGCs", "value": "lack neuroprotective activity"}]}
{"compound": "lestautinib", "values": [{"measurement": "Neuroprotective (survival-promoting) activity on primary RGCs in culture", "setting": "immunopanned RGCs", "value": "promoted the survival of primary RGCs in culture"}]}
